Experimental findings from patent publication US10561710B2, “Goblet cell replacement therapy” (University of Pittsburgh—Of the Commonwealth System of …, priority 2014, dated 2020) are described below.

Common to all, as to assay type: in vivo, New Zealand white rabbits
Test [1] has as its system conjunctival goblet cells. The test can be described thus: Goblet cells in blebs treated with MMC, IP-10p or IP-10p as perioperative rescue at MMC surgery. Conditions: rabbit modified trabeculectomy; MMC alone, or MMC then IP-10p as perioperative rescue. On the procedure: FIGS. 5A-5B: Goblet cells in treated and untreated blebs. (FIG. 5A) Goblet cells were evaluated in treated and untreated blebs. Bleb tissue was treated with MMC alone, IP-10p alone, or IP-10p as a perioperative “rescue” treatment at the time of MMC surgery.
Modified trabeculectomy was performed in New Zealand white rabbits using a 22 gauge angiocatheter inserted into the anterior chamber.

Test [2] concerns bleb tissue. As to the kind of experiment: Collagen in bleb tissue, Masson's trichrome staining with METAMORPH analysis. As to conditions: rabbit modified trabeculectomy, vs untreated. On the procedure: FIGS. 3A-3B: Decreased fibrosis in treated blebs. […] Collagen was quantified using Masson's trichrome staining. […] Original magnifications ×100.
(§1) In the following studies, modified trabeculectomy was performed in New Zealand white rabbits using a 22 gauge angiocatheter inserted into the anterior chamber. Rabbit eyes were either untreated or treated with IP-10FL (SEQ ID NO: 12) or IP-10p (SEQ ID NO: 13) by intraoperative topical application. Untreated and injured bleb formation was confirmed and assessed weekly after the procedure. All animals were euthanized at the end of the six week study.
Collagen was quantified using Masson's trichrome staining.

Test [3] concerns bleb tissue. As to the kind of experiment: Histological grading of blebs after modified trabeculectomy (H&E, Masson's trichrome). Conditions: rabbit modified trabeculectomy, intraoperative topical application, six week study, vs untreated. On the procedure: as §1
To evaluate histological differences in treated and untreated blebs, the globes were embedded in paraffin and stained with hematoxylin and eosin (H&E) and Masson's trichrome. A-semi quantitative histological grading score was used to assess cellularity, collagen deposition (fibrosis) and inflammation to compare findings between the four animal groups (uninjured, control (injured), IP-10 full length treated and IP-10p treated).

In test [4] the test system is conjunctival goblet cells. The test can be described thus: Goblet cell number in treated blebs after modified trabeculectomy. Conditions: rabbit modified trabeculectomy, average cell number per high-powered field, six central bleb cross-sections, vs untreated. As to the method: FIGS. 4A-4B: Increased goblet cells in treated blebs. […] (FIG. 4A) Goblet cell number was calculated using the average cell number per high-powered field from six consecutive central bleb cross-sections of each specimen. (FIG. 4B) Representative images (Masson's trichrome stain) show the number of conjunctival goblet cells (asterisks).
as §1
Goblet cells were also evaluated in treated and untreated blebs.

In test [5] the test system is bleb tissue. As to the kind of experiment: Neovascularization in bleb tissue by H&E staining (number of capillaries). As to conditions: rabbit modified trabeculectomy, low-power field in center of injured area, vs untreated. As to the method: FIGS. 2A-2B: Arrested angiogenesis in treated blebs. Neovascularization in the bleb tissue was assessed using H&E staining. (FIG. 2A) Quantitation of the number of capillaries, as determined by morphology, with a low-power field in the center of the injured area is shown in the graph. The data was derived from two independent experiments of at least three globes with each evaluated in three random low-power fields (shown are mean±SD, *P<0.05). […] Original magnifications ×100.
as §1
Next, angiogenesis was evaluated in treated and untreated blebs. Neovascularization in the bleb tissue was assessed by H&E staining.

Regarding mitomycin C [MMC], in test [1], the “goblet cells / goblet cell density in bleb tissue” value is on record as “marked decrease in goblet cells”.
In the case of “IP-10p: Human IP-10 fragment/variant, SEQ ID NO: 13, PESKAIKNLLKAVSKEMSKRSP”, the “collagen deposition in bleb tissue” value with bleb tissue [2] was “significantly less collagen”. For the same substance, in the test with bleb tissue [3], the “inflammation and fibrosis (semi-quantitative histological grading score; collagen content, elastic fiber thickness and orientation)” value is “reduction in inflammation and fibrosis”. For the same substance, the “number of goblet cells in bleb tissue” value in test [4] is listed as “increase in the number of goblet cells”. Further, in the test with bleb tissue [5], the “number of capillaries present in blebs” value is “significantly reduced the number of capillaries”.
In the case of “IP-10FL: Human IP-10 variant (IP-10FL), SEQ ID NO: 12; CXCR3 activator”, in the test on bleb tissue [2], the “collagen deposition in bleb tissue” value is “significantly less collagen”. In addition, the “inflammation and fibrosis (semi-quantitative histological grading score; collagen content, elastic fiber thickness and orientation)” value with bleb tissue [3] was “reduction in inflammation and fibrosis”. The “number of goblet cells in bleb tissue” value in test [4] is on record as “increase in the number of goblet cells”. Besides, in the test on bleb tissue [5], the “number of capillaries present in blebs” value was “significantly reduced the number of capillaries”.
